Source: patent US20250230193A1, “CYCLIC COMPOUND HAVING SELECTIVE KRAS INHIBITORY EFFECT ON HRAS AND NRAS” (CHUGAI SEIYAKU KABUSHIKI KAISHA, priority 2022, published 2025)

Legend:
[1] = biological target: GDP-bound HRAS wild-type protein (Homo sapiens, UniProt P01112); assay: Binding to HRAS by surface plasmon resonance (SPR), Single Cycle Kinetics; settings: KD ratio HRAS/KRAS, SPR, GDP-bound wild-type proteins
[2] = biological target: GDP-bound NRAS wild-type protein (Homo sapiens, UniProt P01111); assay: Binding to NRAS by surface plasmon resonance (SPR), Single Cycle Kinetics; settings: KD ratio NRAS/KRAS, SPR, GDP-bound wild-type proteins
GDP-bound NRAS wild-type protein, sequence (P01111 whole entry): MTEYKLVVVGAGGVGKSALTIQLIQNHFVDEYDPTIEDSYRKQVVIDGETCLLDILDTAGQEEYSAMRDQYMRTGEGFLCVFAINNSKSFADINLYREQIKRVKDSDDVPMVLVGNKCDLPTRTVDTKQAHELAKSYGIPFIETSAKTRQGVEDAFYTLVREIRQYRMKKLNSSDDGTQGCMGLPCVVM

GDP-bound HRAS wild-type protein, sequence (P01112 whole entry): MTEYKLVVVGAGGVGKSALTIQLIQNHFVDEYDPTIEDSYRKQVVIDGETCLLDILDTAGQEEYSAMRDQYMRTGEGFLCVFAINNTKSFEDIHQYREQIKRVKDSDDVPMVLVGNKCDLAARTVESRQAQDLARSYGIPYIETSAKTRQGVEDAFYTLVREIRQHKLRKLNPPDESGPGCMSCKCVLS

SMILES | HRAS/KRAS (ratio of KD value with respect to GDP-bound HRAS wild-type protein to KD value with respect to KRAS) [1] | NRAS/KRAS (ratio of KD value with respect to GDP-bound NRAS wild-type protein to KD value with respect to KRAS) [2]
CCO[C@@H]1C[C@H]2C(=O)NC3(CC(C)(C)C3)C(=O)N(C)[C@@H](C3CCCC3)C(=O)N(C)[C@H](C(=O)N3CCCCC3)CC(=O)N(C)[C@H]3CCCCCc4ccc(cc4)C[C@@H](C(=O)N(C)CC(=O)N[C@@H](CCc4ccc(C(F)(F)F)c(OC)c4)C(=O)N2C1)N1CC/C=C\C[C@@H](C1=O)N(C)C(=O)CN(C)C(=O)[C@H]([C@@H](C)CC)NC3=O [PP3036, (1S,7S,11R,13S,19S,22S,26S,29S,35S,37Z)-19-cyclopentyl-11-ethoxy-7-[2-[3-methoxy-4-(trifluoromethyl)phenyl]ethyl]-3,3′,3′,18,21,25,31,34-octamethyl-29-[(1S)-1-methylpropyl]-22-(piperidine-1-carbonyl)spiro[3,6,9,15,18,21,25,28,31,34,41-undecazapentacyclo[24.15.10.2^43,46.1^35,41.0^9,13]tetrapentaconta-37,43(53),44,46(52)-tetraene-16,1′-cyclobutane]-2,5,8,14,17,20,24,27,30,33,54-undecone] | B (a compound having 3 or more and less than 10 is denoted as B) | A (a compound having 10 or more and less than 20 is denoted as A)
CCO[C@@H]1C[C@H]2C(=O)NC3(CC(C)(C)C3)C(=O)N(C)[C@@H](C3CCCC3)C(=O)N(C)[C@H](C(=O)N3CCCC3)CC(=O)N(C)[C@H]3CCCCCc4ccc(cc4)C[C@@H](C(=O)N(C)CC(=O)N[C@@H](CCc4ccc(C(F)(F)F)c(OC)c4)C(=O)N2C1)N1CC/C=C\C[C@@H](C1=O)N(C)C(=O)CN(C)C(=O)[C@H]([C@@H](C)CC)NC3=O [PP3037, (1S,7S,11R,13S,19S,22S,26S,29S,35S,37Z)-19-cyclopentyl-11-ethoxy-7-[2-[3-methoxy-4-(trifluoromethyl)phenyl]ethyl]-3,3′,3′,18,21,25,31,34-octamethyl-29-[(1S)-1-methylpropyl]-22-(pyrrolidine-1-carbonyl)spiro[3,6,9,15,18,21,25,28,31,34,41-undecazapentacyclo[24.15.10.2^43,46.1^35,41.0^9,13]tetrapentaconta-37,43(53),44,46(52)-tetraene-16,1′-cyclobutane]-2,5,8,14,17,20,24,27,30,33,54-undecone] | B (a compound having 3 or more and less than 10 is denoted as B) | A (a compound having 10 or more and less than 20 is denoted as A)
CCCO[C@@H]1C[C@H]2C(=O)NC3(CC(C)(C)C3)C(=O)N(C)[C@@H](C(CC)CC)C(=O)N(C)[C@H](C(=O)N(C)C)CC(=O)N(C)[C@H]3CCCCc4ccc(cc4)C[C@@H](C(=O)N(C)CC(=O)N[C@@H](CCc4ccc(C(F)(F)F)c(OC)c4)C(=O)N2C1)N1CC/C=C\C[C@@H](C1=O)N(C)C(=O)CN(C)C(=O)[C@H]([C@@H](C)CC)NC3=O [PP3038] | A (a compound having 10 or more and less than 20 is denoted as A) | A (a compound having 10 or more and less than 20 is denoted as A)
CCO[C@@H]1C[C@H]2C(=O)NC3(CCC3)C(=O)N(C)[C@@H](C(CC)CC)C(=O)N(C)[C@H](C(=O)N3CCCCC3)CC(=O)N(C)[C@H]3CCC/C=C/c4ccc(cc4)C[C@@H](C(=O)N(C)CC(=O)N[C@@H](CCc4ccc(Cl)c(Cl)c4)C(=O)N2C1)N1CC/C=C\C[C@@H](C1=O)N(C)C(=O)CN(C1CC1)C(=O)[C@H]([C@@H](C)CC)NC3=O [PP3039] | A (a compound having 10 or more and less than 20 is denoted as A) | AA (a compound having 20 or more is denoted as AA)
CCO[C@@H]1C[C@H]2C(=O)NC3(CCC3)C(=O)N(C)[C@@H](C(CC)CC)C(=O)N(C)[C@H](C(=O)N3CCCC3)CC(=O)N(C)[C@H]3CCC/C=C/c4ccc(cc4)C[C@@H](C(=O)N(C)CC(=O)N[C@@H](CCc4ccc(Cl)c(Cl)c4)C(=O)N2C1)N1CC/C=C\C[C@@H](C1=O)N(C)C(=O)CN(C1CC1)C(=O)[C@H]([C@@H](C)CC)NC3=O [PP3040] | A (a compound having 10 or more and less than 20 is denoted as A) | AA (a compound having 20 or more is denoted as AA)
CCO[C@@H]1C[C@H]2C(=O)NC3(CC(C)(C)C3)C(=O)N(C)[C@@H](C(CC)CC)C(=O)N(C)[C@H](C(=O)N(C)C)CC(=O)N(C)[C@H]3CCCC/C=C/c4ccc(cc4)C[C@@H](C(=O)N(C)CC(=O)N[C@@H](CCc4cc(F)c(C(F)(F)F)c(F)c4)C(=O)N2C1)N1CC/C=C\C[C@@H](C1=O)N(C)C(=O)CN(C)C(=O)[C@H]([C@@H](C)CC)NC3=O [PP3044] | A (a compound having 10 or more and less than 20 is denoted as A) | AA (a compound having 20 or more is denoted as AA)
CCO[C@@H]1C[C@H]2C(=O)NC3(CC(C)(C)C3)C(=O)N(C)[C@@H](C(CC)CC)C(=O)N(C)[C@H](C(=O)N(C)C)CC(=O)N(C)[C@H]3CCCC/C=C/c4ccc(cc4)C[C@@H](C(=O)N(C)CC(=O)N[C@@H](CCc4ccc(Cl)c(Cl)c4)C(=O)N2C1)N1CC/C=C\C[C@@H](C1=O)N(C)C(=O)CN(C)C(=O)[C@H]([C@@H](C)CC)NC3=O [PP3045] | A (a compound having 10 or more and less than 20 is denoted as A) | AA (a compound having 20 or more is denoted as AA)
CCO[C@@H]1C[C@H]2C(=O)NC3(CCC3)C(=O)N(C)[C@@H](C(CC)CC)C(=O)N(C)[C@H](C(=O)N3CCCCC3)CC(=O)N(C)[C@H]3CCCC/C=C/c4ccc(cc4)C[C@@H](C(=O)N(C)CC(=O)N[C@@H](CCc4ccc(Cl)c(Cl)c4)C(=O)N2C1)N1CC/C=C\C[C@@H](C1=O)N(C)C(=O)CN(C)C(=O)[C@H]([C@@H](C)CC)NC3=O [PP3046] | A (a compound having 10 or more and less than 20 is denoted as A) | AA (a compound having 20 or more is denoted as AA)
